Columns and labels:
[1] = molecular target: T1, Amine oxidase [copper-containing] 3 (Homo sapiens, UniProt Q16853); test: Inhibition of human VAP1
T1 sequence (Q16853 whole entry): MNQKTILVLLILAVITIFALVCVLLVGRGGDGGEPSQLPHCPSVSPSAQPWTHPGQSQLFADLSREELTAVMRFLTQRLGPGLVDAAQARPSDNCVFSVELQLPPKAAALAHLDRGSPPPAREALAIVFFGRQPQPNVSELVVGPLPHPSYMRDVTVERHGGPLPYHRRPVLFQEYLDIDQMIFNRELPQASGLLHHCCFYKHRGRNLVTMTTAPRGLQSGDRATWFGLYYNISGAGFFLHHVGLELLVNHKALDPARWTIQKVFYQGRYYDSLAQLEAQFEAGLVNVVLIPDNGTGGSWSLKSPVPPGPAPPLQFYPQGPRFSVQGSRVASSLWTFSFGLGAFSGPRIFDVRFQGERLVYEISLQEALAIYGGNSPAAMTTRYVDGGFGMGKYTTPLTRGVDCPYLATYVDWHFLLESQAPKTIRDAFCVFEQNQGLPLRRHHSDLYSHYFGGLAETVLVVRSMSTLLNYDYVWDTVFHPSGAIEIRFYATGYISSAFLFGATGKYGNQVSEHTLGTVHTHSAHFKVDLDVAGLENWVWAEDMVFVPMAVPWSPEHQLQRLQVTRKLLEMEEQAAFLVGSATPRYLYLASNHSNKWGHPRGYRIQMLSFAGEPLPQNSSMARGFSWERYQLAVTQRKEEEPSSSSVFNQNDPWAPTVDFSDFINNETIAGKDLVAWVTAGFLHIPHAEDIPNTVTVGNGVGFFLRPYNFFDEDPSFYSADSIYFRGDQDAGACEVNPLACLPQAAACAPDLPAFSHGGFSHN

[2] = Cytotoxicity against human U87MG cells assessed as inhibition of cell growth after 72 hrs by MTT assay; assay type: functional, cell-based, U-87MG ATCC; conditions: U-87 MG
HT-29 [3] = test: cells; conditions: Homo sapiens, HT-29, 72 h
cells [4] = conditions: Homo sapiens, NCI-H460, 72 h
A549 = test: cells; conditions: Homo sapiens, A549, 72 h
cells [5] = conditions: Homo sapiens, MKN-45, 72 h
[6] = molecular target: Hepatocyte growth factor receptor (Homo sapiens, UniProt P08581); test: Inhibition of c-Met (unknown origin) using poly (Glu,Tyr)4:1 as substrate by homogeneous time-resolved fluorescence assay
[7] = molecular target: Mast/stem cell growth factor receptor Kit (Homo sapiens, UniProt P10721); test: Inhibition of c-Kit (unknown origin)
[8] = molecular target: T2, Receptor-type tyrosine-protein kinase FLT3 (Homo sapiens, UniProt P36888); test: Inhibition of Flt3 (unknown origin)
T2 sequence (P36888 whole entry): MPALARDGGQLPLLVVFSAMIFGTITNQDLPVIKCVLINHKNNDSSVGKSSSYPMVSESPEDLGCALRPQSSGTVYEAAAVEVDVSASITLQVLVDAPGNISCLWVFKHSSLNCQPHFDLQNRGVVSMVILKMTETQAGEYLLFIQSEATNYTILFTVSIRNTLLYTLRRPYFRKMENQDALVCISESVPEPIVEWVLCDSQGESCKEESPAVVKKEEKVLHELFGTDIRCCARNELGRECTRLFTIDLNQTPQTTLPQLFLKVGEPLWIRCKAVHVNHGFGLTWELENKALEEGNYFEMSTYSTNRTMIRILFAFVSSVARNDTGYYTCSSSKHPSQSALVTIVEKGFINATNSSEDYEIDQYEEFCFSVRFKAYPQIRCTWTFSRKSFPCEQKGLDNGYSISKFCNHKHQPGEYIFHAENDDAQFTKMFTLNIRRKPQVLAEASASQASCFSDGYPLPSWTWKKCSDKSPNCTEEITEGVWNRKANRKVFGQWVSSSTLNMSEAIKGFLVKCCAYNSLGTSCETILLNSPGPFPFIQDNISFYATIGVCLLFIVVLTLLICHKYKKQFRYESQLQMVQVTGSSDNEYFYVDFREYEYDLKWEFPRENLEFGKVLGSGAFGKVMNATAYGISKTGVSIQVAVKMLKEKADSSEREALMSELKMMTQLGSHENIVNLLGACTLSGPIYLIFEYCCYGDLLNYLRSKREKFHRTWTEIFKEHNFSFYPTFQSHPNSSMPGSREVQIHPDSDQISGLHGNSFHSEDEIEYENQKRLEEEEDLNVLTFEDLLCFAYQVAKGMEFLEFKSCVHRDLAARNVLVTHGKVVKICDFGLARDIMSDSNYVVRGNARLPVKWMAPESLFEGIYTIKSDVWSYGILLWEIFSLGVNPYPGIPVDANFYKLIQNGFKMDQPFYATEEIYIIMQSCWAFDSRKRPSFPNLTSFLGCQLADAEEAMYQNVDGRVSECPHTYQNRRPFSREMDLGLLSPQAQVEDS

[9] = molecular target: Platelet-derived growth factor receptor beta (Homo sapiens, UniProt P09619); test: Inhibition of PDGFR beta (unknown origin)
[10] = molecular target: Vascular endothelial growth factor receptor 2 (Homo sapiens, UniProt P35968); test: Inhibition of KDR (unknown origin)
[11] = molecular target: Epidermal growth factor receptor (Homo sapiens, UniProt P00533); test: Inhibition of EGFR (unknown origin)
HT-29 [12] = test: Ratio of foretinib IC50 to compound IC50 for human HT-29 cells; assay type: functional
[13] = Ratio of foretinib IC50 to compound IC50 for human H460 cells; assay type: functional

Structure (SMILES)	IC50 [1] [nM]	IC50 [2] [nM]	IC50 (HT-29 [3]) [nM]	IC50 (cells [4]) [nM]	IC50 (A549) [nM]	IC50 (cells [5]) [nM]	IC50 [6] [nM]	IC50 [7] [nM]	IC50 [8] [nM]	IC50 [9] [nM]	IC50 [10] [nM]	IC50 [11] [nM]	Ratio IC50 (HT-29 [12])	Ratio IC50 [13]
O=c1ccc(=O)[nH][nH]1	20	–	–	–	–	–	–	–	–	–	–	–	–	–
COc1ccc(-n2nc(C(=O)Nc3ccc(Oc4ccnc5cc(OCCCN6CCC(C)CC6)c(OC)cc45)c(F)c3)c(C)cc2=O)cc1	–	2840	5450	4650	1100	400	–	–	–	–	–	–	–	–
COc1cc2c(Oc3ccc(NC(=O)c4nn(-c5ccccc5)c(=O)cc4C)cc3F)ccnc2cc1OCCCN1CCN(C)CC1	–	2120	270	360	350	130	–	–	–	–	–	–	–	–
COc1cc2c(Oc3ccc(NC(=O)c4nn(-c5ccccc5C)c(=O)cc4C)cc3F)ccnc2cc1OCCCN1CCN(C)CC1	–	3720	3790	3420	2830	1630	–	–	–	–	–	–	–	–
COc1cc2c(Oc3ccc(NC(=O)c4nn(-c5cccc(F)c5)c(=O)cc4C)cc3F)ccnc2cc1OCCCN1CCN(C)CC1	–	1590	250	260	150	120	–	–	–	–	–	–	–	–
COc1cc2c(Oc3ccc(NC(=O)c4nn(-c5ccc(Cl)cc5)c(=O)cc4C)cc3F)ccnc2cc1OCCCN1CCN(C)CC1	–	1560	320	440	270	40	–	–	–	–	–	–	–	–
COc1cc2c(Oc3ccc(NC(=O)c4nn(-c5ccccc5)c(=O)cc4C)cc3F)ccnc2cc1OCCCN1CCCC1	–	1100	220	460	370	120	–	–	–	–	–	–	–	–
COc1cc2c(Oc3ccc(NC(=O)c4nn(-c5ccccc5C)c(=O)cc4C)cc3F)ccnc2cc1OCCCN1CCCC1	–	2960	1400	1590	1300	760	–	–	–	–	–	–	–	–
COc1cc2c(Oc3ccc(NC(=O)c4nn(-c5ccccc5C(F)(F)F)c(=O)cc4C)cc3F)ccnc2cc1OCCCN1CCCC1	–	1010	140	210	130	100	–	–	–	–	–	–	–	–
COc1cc2c(Oc3ccc(NC(=O)c4nn(-c5cccc(F)c5)c(=O)cc4C)cc3F)ccnc2cc1OCCCN1CCCC1	–	1700	250	280	170	120	–	–	–	–	–	–	–	–
COc1ccc(-n2nc(C(=O)Nc3ccc(Oc4ccnc5cc(OCCCN6CCCC6)c(OC)cc45)c(F)c3)c(C)cc2=O)cc1	–	2960	3300	3610	2770	1290	–	–	–	–	–	–	–	–
COc1cc2c(Oc3ccc(NC(=O)c4nn(-c5ccccc5C)c(=O)cc4C)cc3F)ccnc2cc1OCCCN1CCCCC1	–	2500	2810	3220	1920	1310	–	–	–	–	–	–	–	–
COc1cc2c(Oc3ccc(NC(=O)c4nn(-c5cccc(F)c5)c(=O)cc4C)cc3F)ccnc2cc1OCCCN1CCCCC1	–	1500	290	360	250	130	–	–	–	–	–	–	–	–
COc1ccc(-n2nc(C(=O)Nc3ccc(Oc4ccnc5cc(OCCCN6CCCCC6)c(OC)cc45)c(F)c3)c(C)cc2=O)cc1	–	1800	3200	3730	1500	330	–	–	–	–	–	–	–	–
COc1cc2c(Oc3ccc(NC(=O)c4nn(-c5ccc(Cl)cc5Cl)c(=O)cc4C)cc3F)ccnc2cc1OCCCN1CCCCC1	–	1800	290	390	220	80	–	–	–	–	–	–	–	–
COc1cc2c(Oc3ccc(NC(=O)c4nn(-c5ccccc5C)c(=O)cc4C)cc3F)ccnc2cc1OCCCN1CCC(C)CC1	–	2240	2810	2260	1460	1290	–	–	–	–	–	–	–	–
COc1cc2c(Oc3ccc(NC(=O)c4nn(-c5ccccc5OC(F)(F)F)c(=O)cc4C)cc3F)ccnc2cc1OCCCN1CCC(C)CC1	–	800	250	290	90	70	–	–	–	–	–	–	–	–
COc1cc2c(Oc3ccc(NC(=O)c4nn(-c5cccc(F)c5)c(=O)cc4C)cc3F)ccnc2cc1OCCCN1CCC(C)CC1	–	1800	300	250	250	140	–	–	–	–	–	–	–	–
COc1cc2c(Oc3ccc(NC(=O)c4nn(-c5ccccc5)c(=O)cc4C)cc3F)ccnc2cc1OCCCN1CCOCC1	–	1600	350	450	720	110	–	–	–	–	–	–	–	–
COc1cc2c(Oc3ccc(NC(=O)c4nn(-c5ccccc5C)c(=O)cc4C)cc3F)ccnc2cc1OCCCN1CCOCC1	–	2000	1010	1380	530	270	–	–	–	–	–	–	–	–
COc1cc2c(Oc3ccc(NC(=O)c4nn(-c5ccccc5C(F)(F)F)c(=O)cc4C)cc3F)ccnc2cc1OCCCN1CCOCC1	–	1060	100	130	50	30	2.15	4.32	9.28	92.3	425	> 10000	1.9	1.5
COc1cc2c(Oc3ccc(NC(=O)c4nn(-c5cccc(F)c5)c(=O)cc4C)cc3F)ccnc2cc1OCCCN1CCOCC1	–	1980	270	290	550	110	–	–	–	–	–	–	–	–
COc1cc2c(Oc3ccc(NC(=O)c4nn(-c5ccc(Cl)cc5)c(=O)cc4C)cc3F)ccnc2cc1OCCCN1CCOCC1	–	1970	260	380	330	70	–	–	–	–	–	–	–	–

Reference: ChEMBL document CHEMBL3286137, “Design, synthesis and structure-activity relationships of novel 4-phenoxyquinoline derivatives containing pyridazinone moiety as potential antitumor agents” (Eur J Med Chem, 2014)
